In patent US20260226006A1, “INDOLE COMPOUND, PREPARATION METHOD THEREFOR AND USE THEREOF” (SUZHOU MERNA THERAPEUTICS CO. LTD, priority 2023, published 2026):

Columns and labels:
HaCat cells = assay: m6A methylation level of human HaCat keratinocytes, EpiQuik m6A RNA methylation quantification kit (Example 20); format: cell-based; conditions: for m6A fold change relative to control group 1 / fold induction at 0.05 µM: HaCat cells, 24 hours; for m6A methylation level of human HaCat keratinocytes / fold induction at 0.05 µM: 50 nM drug alone; for fold induction at 0.05 µM: Homo sapiens, read-out: m6A fold change relative to control group 1
Outline: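 HaCat keratinocytes in DMEM/10% FBS given 50 nM sorafenib, capecitabine, docetaxel or osimertinib, then 400 nM test compound or nicotinamide, and cultured 24 hours at 37° C. Total RNA m6A quantified by EpiQuik ELISA at 450 nm against a standard curve, expressed as percentage of RNA input.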

paw plantar skin of rats = assay: Rat models with hand-foot skin reaction, topical ointment (Example 22); format: in vivo, SD rats; conditions: for Incidence rate / Incidence rate (successful modeling rate for hand-foot skin reaction): 30 days; for Incidence rate (successful modeling rate for hand-foot skin reaction): modeling drug alone by gavage once daily, no ointment, SD rats
Experimental: After adaptive feeding for one week, SD rats (with a body weight of approximately 200 g) were randomly divided into groups according to the body weight, with 12 rats in each group. Modeling drugs (including sorafenib, erlotinib, afatinib, and osimertinib) were respectively dissolved in a solution containing 5% of DMSO, 45% of PEG400, and 50% of H2O, and the modeling drugs were diluted to required concentrations and then administered once daily by gavage at doses shown in Table 3. After administration by gavage for 1 hour, 0.05 g of ointments containing different mass proportions of test compounds were evenly applied to left paws of the rats, a blank matrix ointment was applied to right paws of the rats to serve as a self-control, and no ointment was applied to the rats in a blank control group. After drug application, four limbs were continuously immobilized for 2 hours, then wiped with clean water to remove the residual drugs, removed from immobilization, and restored to free movement. The modeling drugs, the blank matrix ointment, and the ointments containing the test compounds were all administered once daily. After continuous administration for 30 days, the rats were euthanized, and paw plantar skin tissues were collected, fixed in 10% neutral formalin, […]. The ointments for the test compounds were prepared by mixing the compounds, white beeswax, white petrolatum, and light liquid paraffin in specific ratios (weight ratios of 3 ointments were respectively 1:18:58:23, 3:18:57:22, and 10:20:40:30). The blank matrix ointment was prepared by mixing white beeswax, white petrolatum, and light liquid paraffin in a specific ratio (weight ratio of 18:60:22).
Tissue staining: After dewaxing and rehydration, the paw plantar skin tissue sections of the above rats were stained in a hematoxylin solution for several minutes, cleaned, and placed in 1% acid alcohol for soaking until the sections faded to light blue-red. After cleaning with running water for 5 minutes, the sections were stained with eosin for 2-3 minutes, cleaned to remove excess dyes, dehydrated, then permeabilized by adding xylene for several minutes, and sealed and fixed with a neutral resin. The stratum corneum was observed under an optical microscope, and the thickness of the epidermal stratum corneum was measured using Dmetrix software.
Immunohistochemical staining: After dewaxing and hydration, the paw plantar skin tissue sections of the above rats were incubated with 3% H2O2 at room temperature for 30 minutes and blocked with 10% goat serum for 30 minutes after antigen retrieval. A KRT1 antibody (Abcam, ab93652) and a Loricrin antibody (Abcam, ab183646) were added dropwise, the sections were incubated overnight at 4° C., and an HRP secondary antibody (ZSGB-BIO, PV-6001) and a DAB kit (ZSG-BIO, ZLI9017) were added for color development. The sections were re-stained with hematoxylin, cleaned, and sealed and fixed with a neutral resin, and the expression amounts of KRT1 and Loricrin were observed under an optical microscope.
An incidence rate calculation method involves a proportion of animals in each group meeting the above criteria for determining successful modeling, that is, incidence rate=(number of successfully modeled rats/total number of rats in the group)*100%. […]

[1] = successfully modeled rats, modeling drug

**Q.** How did the “abnormal increase in the RNA m6A level of human keratinocytes caused by chemotherapeutic drugs and multikinase inhibitors” value (HaCat cells; 400 nM compound after 50 nM drug) turn out when `CN1CC[C@H](C(N)=O)c2[nH]c3ccc(Cl)cc3c21` [Compound 8b, (S)-8-chloro-1-methyl-2,3,4,5-tetrahydropyrido[3,2-b]indole-4-carboxamide] was run?
**A.** effectively inhibit

**Q.** What about the “m6A fold change relative to control group 1” value (HaCat cells; 50 nM capecitabine + 400 nM test compound) of the same molecule?
**A.** 1.0

**Q.** What about the “m6A fold change relative to control group 1” value (HaCat cells; 50 nM docetaxel + 400 nM test compound) of the same molecule?
**A.** 1.2

**Q.** What about the “m6A fold change relative to control group 1” value (HaCat cells; 50 nM osimertinib + 400 nM test compound) of the same molecule?
**A.** 1.0

**Q.** And the “m6A fold change relative to control group 1” value (HaCat cells; 50 nM sorafenib + 400 nM test compound)?
**A.** 1.0

**Q.** And the Incidence rate (paw plantar skin of rats; afatinib 50 mg/kg, 1% compound ointment on left paw, left paw)?
**A.** 1/12 (8%)

**Q.** What about the Incidence rate (paw plantar skin of rats; afatinib 50 mg/kg, 1% compound ointment on left paw, right paw (blank matrix ointment)) of the same molecule?
**A.** 9/12 (75%)

**Q.** What about the Incidence rate (paw plantar skin of rats; afatinib 50 mg/kg, 3% compound ointment on left paw, left paw) of the same molecule?
**A.** 1/12 (8%)

**Q.** And the Incidence rate (paw plantar skin of rats; afatinib 50 mg/kg, 3% compound ointment on left paw, right paw (blank matrix ointment))?
**A.** 4/12 (33%)

**Q.** What about the Incidence rate (paw plantar skin of rats; afatinib 50 mg/kg, 10% compound ointment on left paw, left paw) of the same molecule?
**A.** 0/12 (0%)

**Q.** What about the Incidence rate (paw plantar skin of rats; afatinib 50 mg/kg, 10% compound ointment on left paw, right paw (blank matrix ointment)) of the same molecule?
**A.** 1/12 (8%)

**Q.** What about the “incidence rate of hand-foot skin reaction at a drug application site” value (paw plantar skin of rats; compounds at a mass content of 1% in ointment) of the same molecule?
**A.** significantly decrease

**Q.** What about the “incidence rate of hand-foot skin reaction in all paws of the rats” value (paw plantar skin of rats; compounds at mass contents of 3% and 10% in ointment) of the same molecule?
**A.** significantly decrease

**Q.** What about the Incidence rate (paw plantar skin of rats; erlotinib 70 mg/kg, 1% compound ointment on left paw, left paw) of the same molecule?
**A.** 2/12 (17%)

**Q.** And the Incidence rate (paw plantar skin of rats; erlotinib 70 mg/kg, 1% compound ointment on left paw, right paw (blank matrix ointment))?
**A.** 10/12 (83%)

**Q.** And the Incidence rate (paw plantar skin of rats; erlotinib 70 mg/kg, 3% compound ointment on left paw, left paw)?
**A.** 1/12 (8%)

**Q.** What about the Incidence rate (paw plantar skin of rats; erlotinib 70 mg/kg, 3% compound ointment on left paw, right paw (blank matrix ointment)) of the same molecule?
**A.** 4/12 (33%)

**Q.** What about the Incidence rate (paw plantar skin of rats; erlotinib 70 mg/kg, 10% compound ointment on left paw, left paw) of the same molecule?
**A.** 0/12 (0%)

**Q.** And the Incidence rate (paw plantar skin of rats; erlotinib 70 mg/kg, 10% compound ointment on left paw, right paw (blank matrix ointment))?
**A.** 0/12 (0%)

**Q.** And the Incidence rate (paw plantar skin of rats; osimertinib 60 mg/kg, 1% compound ointment on left paw, left paw)?
**A.** 1/12 (8%)

**Q.** What about the Incidence rate (paw plantar skin of rats; osimertinib 60 mg/kg, 1% compound ointment on left paw, right paw (blank matrix ointment)) of the same molecule?
**A.** 9/12 (75%)

**Q.** What about the Incidence rate (paw plantar skin of rats; osimertinib 60 mg/kg, 3% compound ointment on left paw, left paw) of the same molecule?
**A.** 1/12 (8%)

**Q.** And the Incidence rate (paw plantar skin of rats; osimertinib 60 mg/kg, 3% compound ointment on left paw, right paw (blank matrix ointment))?
**A.** 3/12 (25%)

**Q.** What about the Incidence rate (paw plantar skin of rats; osimertinib 60 mg/kg, 10% compound ointment on left paw, left paw) of the same molecule?
**A.** 0/12 (0%)

**Q.** And the Incidence rate (paw plantar skin of rats; osimertinib 60 mg/kg, 10% compound ointment on left paw, right paw (blank matrix ointment))?
**A.** 0/12 (0%)

**Q.** And the “formation of blisters, inflammatory cell infiltration in the dermis and skin congestion (pathological scoring)” value (paw plantar skin of rats; paw plantar skin of modeled rats, topical ointment)?
**A.** effectively improve

**Q.** What about the Incidence rate (paw plantar skin of rats; sorafenib 100 mg/kg, 1% compound ointment on left paw, left paw) of the same molecule?
**A.** 1/12 (8%)

**Q.** What about the Incidence rate (paw plantar skin of rats; sorafenib 100 mg/kg, 1% compound ointment on left paw, right paw (blank matrix ointment)) of the same molecule?
**A.** 8/12 (67%)

**Q.** What about the Incidence rate (paw plantar skin of rats; sorafenib 100 mg/kg, 3% compound ointment on left paw, left paw) of the same molecule?
**A.** 1/12 (8%)

**Q.** What about the Incidence rate (paw plantar skin of rats; sorafenib 100 mg/kg, 3% compound ointment on left paw, right paw (blank matrix ointment)) of the same molecule?
**A.** 3/12 (25%)

**Q.** And the Incidence rate (paw plantar skin of rats; sorafenib 100 mg/kg, 10% compound ointment on left paw, left paw)?
**A.** 0/12 (0%)

**Q.** What about the Incidence rate (paw plantar skin of rats; sorafenib 100 mg/kg, 10% compound ointment on left paw, right paw (blank matrix ointment)) of the same molecule?
**A.** 1/12 (8%)

**Q.** What about the “differentiation of keratinocytes both in vitro and in vivo” value (paw plantar skin of rats; summary of Examples 21 and 22) of the same molecule?
**A.** effectively inhibit

**Q.** What about the “stratum corneum thickness of the paw plantar skin of the modeled rats” value (paw plantar skin of rats; topical ointment, modeled rats) of the same molecule?
**A.** effectively decrease

**Q.** What does the source list for `C=CC(=O)Nc1cc(Nc2nccc(-c3cn(C)c4ccccc34)n2)c(OC)cc1N(C)CCN(C)C` [Osimertinib, osimertinib, reference compound]?
**A.** m6A methylation level of human HaCat keratinocytes (HaCat cells): significantly increase; fold induction at 0.05 µM (HaCat cells): 4.8; KRT1 and Loricrin in tissues (immunohistochemical staining) (paw plantar skin of rats; rat, in vivo): significantly increased; stratum corneum thickness of the paw plantar skin (paw plantar skin of rats; rat, in vivo): significantly higher than that of normal rats

**Q.** For `CNC(=O)c1cc(Oc2ccc(NC(=O)Nc3ccc(Cl)c(C(F)(F)F)c3)cc2)ccn1` [Sorafenib, sorafenib, reference compound], which “m6A methylation level of human HaCat keratinocytes” value (HaCat cells) is on record?
**A.** significantly increase

**Q.** And the fold induction at 0.05 µM (HaCat cells)?
**A.** 4.5

**Q.** What about the “Incidence rate (successful modeling rate for hand-foot skin reaction)” value (paw plantar skin of rats) of the same molecule?
**A.** 9/12 (75%)

**Q.** What about the “Incidence rate (successful modeling rate for hand-foot skin reaction)” value (paw plantar skin of rats; listed as sorafenib) of the same molecule?
**A.** 75%

**Q.** What about the “KRT1 and Loricrin in tissues (immunohistochemical staining)” value (paw plantar skin of rats; [1]) of the same molecule?
**A.** significantly increased

**Q.** And the “stratum corneum thickness of the paw plantar skin” value (paw plantar skin of rats; [1])?
**A.** significantly higher than that of normal rats
